# In US20230273203A1, “METHOD FOR DETERMINING FORMULATION OF COMBINATION CONSISTING OF MULTIPLE CANDIDATE SUBSTRATES OF SMELL, TASTE, OR SOMATIC SENSATION AND REPRODUCING SMELL, TASTE, OR SOMATIC SENSATION OF TARGET SUBSTANCE” (Japan Tobacco Inc., priority 2020, published 2023):
# Experiments:
# OR9 = test: Olfactory receptor response measurement, CRE-luciferase reporter in HEK-Olf cells; type: cell-based, human; conditions: ◯ = receptor responds to the fragrance; luminescence after 3 hours
# OR3 = test: as above; type: cell-based, human; conditions: ◯ = receptor responds to the fragrance; luminescence after 3 hours
# OR7 = test: as above; type: cell-based, human; conditions: ◯ = receptor responds to the fragrance; luminescence after 3 hours
# OR8 = test: as above; type: cell-based, human; conditions: ◯ = receptor responds to the fragrance; luminescence after 3 hours
# OR10 = test: as above; type: cell-based, human; conditions: ◯ = receptor responds to the fragrance; luminescence after 3 hours
# From the text: (§1) An olfactory receptor gene library (pFN21KSPc HaloTag-OR) prepared by inserting 351 human olfactory receptor genes obtained from a human cDNA library into the pFN21KSPc HaloTag vector was purchased from Kazusa Genome Technologies. Of the 351 types, olfactory receptors OR1A1, OR2B11, and the like were polymorphisms known to show low responses to known agonists, such that the olfactory receptors were modified into polymorphisms with high responsiveness for use in the subsequent test (Joel D. Mainland, et al., Nat Neurosci. 2014; 17(1): p. 114-120).
# The cell line HEK-Olf obtained in Example 1 was prepared in DMEM medium (Thermo Fisher) and then seeded in a 96-well plate (Corning) at 1×10^4 cells/well. Subsequently, pFN21KSPc HaloTag-OR and pGL4.29[luc2P/CRE/Hygro] […]
# (§2) Each olfactory receptor expressing HEK-Olf obtained above was cultured for 24 hours at 37° C. under 5% CO2; then the medium was removed, and test compounds (candidate substances) prepared appropriately in DMEM medium were added in 50 μL aliquots. […] After 3 hours of reaction at 37° C. under 5% CO2, responses of the olfactory receptors were obtained by luminescence measurement using ONE-Glo (trademark) Luciferase Assay kit (Promega).
# (§3) The response intensity R of an olfactory receptor at each concentration was calculated using the luminescence intensity (RLU) obtained in the measurement, based on formula (6) below: […]
# OR1 = test: as above; type: cell-based, human; conditions: ◯ = receptor responds to the fragrance; luminescence after 3 hours
# From the text: as §1
# (§4) The cell line HEK-Olf obtained in Example 1 was prepared in DMEM medium (Thermo Fisher) and then seeded in a 96-well plate (Corning) at 1×10^4 cells/well. Subsequently, pFN21KSPc HaloTag-OR and pGL4.29[luc2P/CRE/Hygro] Vector (Promega) were introduced into the HEK-Olf with ViaFect (trademark) Transfection Reagent (Promega). At this time, pFN21KSPc HaloTag-OR and pGL4.29[luc2P/CRE/Hygro] Vector were prepared to give 70 ng/well and 30 ng/well, respectively. Using each olfactory receptor expressing HEK-Olf thus constructed, measurement of responses of the olfactory receptors was performed as follows.
# (§5) Each olfactory receptor expressing HEK-Olf obtained above was cultured for 24 hours at 37° C. under 5% CO2; then the medium was removed, and test compounds (candidate substances) prepared appropriately in DMEM medium were added in 50 μL aliquots. DMEM medium containing no test compound was added to negative control wells, and forskolin adjusted to 3 μM was added to positive control wells. After 3 hours of reaction at 37° C. under 5% CO2, responses of the olfactory receptors were obtained by luminescence measurement using ONE-Glo (trademark) Luciferase Assay kit (Promega).
# as §3
# (§6) Furthermore, using the curve fitting software XLFit (IDBS), the maximum response intensity and EC50 of the dose response curve were derived.
# OR2 = test: as above; type: cell-based, human; conditions: ◯ = receptor responds to the fragrance; luminescence after 3 hours
# From the text: as §1, §4, §5, §3, §6
# OR4 = test: as above; type: cell-based, human; conditions: ◯ = receptor responds to the fragrance; luminescence after 3 hours
# From the text: as §1, §4, §5, §3, §6
# OR5 = test: as above; type: cell-based, human; conditions: ◯ = receptor responds to the fragrance; luminescence after 3 hours
# From the text: as §1, §4, §5, §3, §6
# OR6 = test: as above; type: cell-based, human; conditions: ◯ = receptor responds to the fragrance; luminescence after 3 hours
# From the text: as §1, §4, §5, §3, §6
# [1] = Sensory evaluation of similarity in odor quality to coumarin (VAS); type: in vivo, human; conditions: headspace aroma, panel of five trained experts, samples in propylene glycol at Table 2 concentrations; FIG. 4
# Protocol: In this example, similarity in odor quality between coumarin and the coumarin reconstitution fragrance obtained in Example 3 was verified by sensory evaluation. In the sensory evaluation, the verification was performed by a panel of five trained experts. The similarity in odor was obtained by evaluating the similarity between the headspace aromas of coumarin presented as a reference and each evaluation sample presented blindly, using a Visual Analog Scale (VAS).
# [2] = tested on: 351 human olfactory receptors; test: Response screen of 351 human olfactory receptors; type: cell-based; conditions: out of 351 human olfactory receptors; all responders class II
# From the text: An olfactory receptor gene library (pFN21KSPc HaloTag-OR) prepared by inserting 351 human olfactory receptor genes obtained from a human cDNA library into the pFN21KSPc HaloTag vector was purchased from Kazusa Genome Technologies. Of the 351 types, olfactory receptors OR1A1, OR2B11, and the like were polymorphisms known to show low responses to known agonists, such that the olfactory receptors were modified into polymorphisms with high responsiveness for use in the subsequent test (Joel D. Mainland, et al., Nat Neurosci. 2014; 17(1): p. 114-120). […]
# as §2, §3
# Based on the above-described procedure, 351 human olfactory receptors were measured for responses to coumarin as a fragrance. […]
structure (smiles),measurement,setting,value
"CCCCC(=O)OCC [Ethyl Valerate, ethyl valerate]",response of olfactory receptor OR9 to the fragrance,OR9,◯
"CC(C)[C@@H]1CC[C@@H](C)CC1=O [Menthone, menthone]",response of olfactory receptor OR3 to the fragrance,OR3,◯
"C=C(C)[C@@H]1CCC2=CC(=O)C[C@@H](C)[C@]2(C)C1 [Nootkatone, nootkatone]",response of olfactory receptor OR7 to the fragrance,OR7,◯
same,response of olfactory receptor OR8 to the fragrance,OR8,◯
same,response of olfactory receptor OR9 to the fragrance,OR9,◯
same,response of olfactory receptor OR10 to the fragrance,OR10,◯
"O=Cc1ccc2c(c1)OCO2 [Piperonal, piperonal]",response of olfactory receptor OR1 to the fragrance,OR1,◯
same,response of olfactory receptor OR2 to the fragrance,OR2,◯
same,response of olfactory receptor OR4 to the fragrance,OR4,◯
same,response of olfactory receptor OR5 to the fragrance,OR5,◯
same,response of olfactory receptor OR6 to the fragrance,OR6,◯
same,similarity in odor quality to coumarin (VAS),[1],low similarity
"O=c1ccc2ccccc2o1 [coumarin, reference compound]",response of olfactory receptor OR1 to the fragrance,OR1,confirmed to respond
same,response of olfactory receptor OR2 to the fragrance,OR2,confirmed to respond
same,response of olfactory receptor OR4 to the fragrance,OR4,confirmed to respond
same,response of olfactory receptor OR5 to the fragrance,OR5,confirmed to respond
same,response of olfactory receptor OR6 to the fragrance,OR6,confirmed to respond
same,response of olfactory receptor OR3 to the fragrance,OR3,confirmed to respond
same,number of olfactory receptors showing dose-dependent responses,[2],six
"O=C(O)C=Cc1ccccc1O [o-Hydroxycinnamic Acid, o-hydroxycinnamic acid]",response of olfactory receptor OR7 to the fragrance,OR7,◯
same,response of olfactory receptor OR8 to the fragrance,OR8,◯
same,response of olfactory receptor OR9 to the fragrance,OR9,◯
"CCCC1CCC(=O)O1 (stereo not shown) [γ-Heptalactone, γ-heptalactone]",response of olfactory receptor OR1 to the fragrance,OR1,◯
same,response of olfactory receptor OR5 to the fragrance,OR5,◯
same,response of olfactory receptor OR3 to the fragrance,OR3,◯
